Test results published in US20060049177A1, “Induction heating cooker” (LG Electronics Inc., priority 2004, published 2006).
Read-outs that look alike come from different tables or passages of the source.

How the values were obtained:
HIV-1 = test: in vitro anti-HIV assay: inhibition of HIV-induced cytopathic effect in MT-4 cells (MTT); assay type: cell-based; conditions: for SI: selectivity index = ratio of CC50 to IC50
Description: (§1) A rapid, sensitive and automated assay procedure was used for the in vitro evaluation of anti-HIV agents. An […] T4-cell line, MT-4, which was previously shown (Koyanagi et al., Int. J. Cancer, 36, 445-451, 1985) to be highly susceptible to and permissive for HIV infection, served as the target cell line. Inhibition of the HIV-induced cytopathic effect was used as the end point. The viability of both HIV- and mock-infected cells was assessed spectrophotometrically via the in situ reduction of 3-(4,5-dimethylthiazol-2-yl)-2,5-diphenyltetrazolium bromide (MTT). The 50% […], cytotoxic concentration (CC50 in μM) was defined as the concentration of compound that reduced the absorbance of the mock-infected control sample by 50%. The percent protection achieved by the compound in HIV-infected cells was calculated by the following formula: [formula]
(§2) whereby (ODT)HIV is the optical density measured with a given concentration of the test compound in HIV-infected cells; (ODC)HIV is the optical density measured for the control untreated HIV-infected cells; (ODC)MOCK is the optical density measured for the control untreated mock-infected cells; all optical density values were determined at 540 nm. The dose achieving 50% protection according to the above formula was defined as the 50% inhibitory concentration (IC50 in μM). The ratio of CC50 to IC50 was defined as the selectivity index (SI).

MT-4 cells = test: cytotoxicity in mock-infected MT-4 cells (MTT)
Description: as §1, §2

[1] = Human immunodeficiency virus 1, MT4, HIV-infected MT-4 cells, dose achieving 50% protection against cytopathic effect, MTT, OD 540 nm, mean value, read-out: IC50
[2] = HIV-infected MT-4 cells, dose achieving 50% protection against cytopathic effect, MTT, OD 540 nm, mean value, read-out: IC50

SMILES | IC50 (HIV-1; [1]) [nM] | SI (HIV-1) | CC50 (MT-4 cells) [nM] | IC50 (HIV-1; [2]) [nM] | IC50 (HIV-1; Human immunodeficiency virus 1, MT4) [nM]
N#Cc1ccc(Nc2nc(N)nc(Cc3c(Cl)cccc3Cl)n2)cc1 [Compound 1, 4-[[4-amino-6-[(2,6-dichlorophenyl)methyl]-1,3,5-triazin-2-yl]amino]benzonitrile] | 2 | >42553 | – | – | –
N#Cc1ccc(Nc2nc(N)nc(Cc3ccccc3)n2)cc1 [Compound 2] | – | >350 | > 100000 | 290 | –
N#Cc1ccc(Nc2nc(N)nc(Cc3ccccc3Cl)n2)cc1 [Compound 3] | – | 3972 | 51600 | 13 | –
N#Cc1cccc(Nc2nc(N)nc(Cc3c(Cl)cccc3Cl)n2)c1 [Compound 4] | – | 224 | 53600 | 240 | –
Nc1nc(Cc2c(Cl)cccc2Cl)nc(Nc2ccc(Cl)cc2)n1 [Compound 5] | – | 2793 | 47500 | 17 | –
N#Cc1ccc(Nc2nc(N)nc(Cc3c(Cl)ccc4[nH]ccc34)n2)cc1 [Compound 8, 4-[[4-amino-6-[(5-chloro-1H-indol-4-yl)methyl]-1,3,5-triazin-2-yl]amino]benzonitrile] | – | 4806 | – | – | 300
CN(C)c1nc(Cc2c(Cl)cccc2Cl)nc(Nc2ccc(C#N)cc2)n1 [Compound 10] | – | >602 | > 100000 | 170 | –
N#Cc1ccc(Nc2nc(Cc3c(Cl)cccc3Cl)nc(Nc3ccc(C#N)cc3)n2)cc1 [Compound 11, N,N′-[6-[(2,6-dichlorophenyl)methyl]1,3,5-triazin-2,4-diyl]bis[4-aminobenzonitrile]] | – | <1 | 6000 | > 10400 | –
CCN(CC)c1nc(Cc2c(Cl)cccc2Cl)nc(Nc2ccc(C#N)cc2)n1 [Compound 12] | – | >2 | > 20000 | 8100 | –
COC(=O)CNc1nc(Cc2c(Cl)cccc2Cl)nc(Nc2ccc(C#N)cc2)n1 [Compound 13] | – | >178 | > 20000 | 110 | –
N#Cc1ccc(Nc2nc(Cc3c(Cl)cccc3Cl)nc(NCC(N)=O)n2)cc1 [Compound 14, [N-[4-[(4-cyano-phenyl)amino]-6-[(2,6-dichlorophenyl)methyl]-1,3,5-triazin-2-yl]]aminoacetamide] | 31 | 293 | – | – | –
N#Cc1ccc(Nc2nc(Cc3c(Cl)cccc3Cl)nc(NN)n2)cc1 [Compound 15, 4-[[4-[(2,6-dichlorophenyl)methyl]-6-hydrazino-1,3,5-triazin-2yl]amino]benzonitrile] | 61 | 732 | – | – | –
N#Cc1ccc(Nc2nc(Cc3c(Cl)cccc3Cl)nc(NCC(=O)O)n2)cc1 [Compound 16, N-[4-[(4-cyanophenyl)-amino]-6-[(2,6-dichlorophenyl)methyl]-1,3,5-triazin-2-yl]glycine] | 2800 | 28 | – | – | –
CCOC(=O)CC[C@H](Nc1nc(Cc2c(Cl)cccc2Cl)nc(Nc2ccc(C#N)cc2)n1)C(=O)OCC [Compound 17] | – | >4 | > 20000 | 4300 | –
N#Cc1ccc(Nc2nc(Cc3c(Cl)cccc3Cl)nc(NCCO)n2)cc1 [Compound 18] | – | >2030 | > 20000 | 1 | –
N#Cc1ccc(Nc2nc(Cc3c(Cl)cccc3Cl)nc(NCCN)n2)cc1 [Compound 19] | – | 810 | 10400 | 13 | –
N#Cc1ccc(Nc2nc(Cc3c(Cl)cccc3Cl)nc(NC(=N)N)n2)cc1 [Compound 20, N-[4-[(4-cyanophenyl)amino]-6-[(2,6-dichlorophenyl)methyl]-1,3,5-triazin-2-yl]-guanidine] | > 100000 | <1 | – | – | –
Cl.N#Cc1ccc(Nc2nc(Cc3c(Cl)cccc3Cl)nc(NO)n2)cc1.O [Compound 21, 4-[[4-[(2,6-dichlorophenyl)methyl]-6-(hydroxyamino)-1,3,5-triazin-2-yl]amino]benzonitrile monohydrochloride.monohydrate] | – | 4924 | 8900 | 2 | –
CC(=O)Nc1nc(Cc2c(Cl)cccc2Cl)nc(Nc2ccc(C#N)cc2)n1 [Compound 22, N-[4-[(4-cyanophenyl)amino]-6-[(2,6-dichlorophenyl)methyl)-1,3,5-triazin-2-yl]-acetamide] | 14 | >6993 | – | – | –
N#Cc1ccc(Nc2nc(Cc3c(Cl)cccc3Cl)nc(NCCCNC(N)=O)n2)cc1 [Compound 23, N-[3-[[4-[(4-cyanophenyl)amino]-6-[(2,6-dichlorophenyl)methyl]-1,3,5-triazin-2-yl]amino]propyl]urea] | 340 | 106 | – | – | –
N#Cc1ccc(Nc2nc(Cc3c(Cl)cccc3Cl)nc(NCCCCO)n2)cc1 [Compound 24] | – | 529 | 36100 | 68 | –
N#Cc1ccc(Nc2nc(Cc3c(Cl)cccc3Cl)nc(NCCCO)n2)cc1 [Compound 25] | – | 1773 | 51600 | 29 | –

SMILES | IC50 (HIV-1; [1]) [nM] | SI (HIV-1) | CC50 (MT-4 cells) [nM] | IC50 (HIV-1; [2]) [nM] | IC50 (HIV-1; Human immunodeficiency virus 1, MT4) [nM]
N#Cc1ccc(Nc2nc(Cc3c(Cl)cccc3Cl)nc(NCC(O)CO)n2)cc1 (centres unmarked) [Compound 26, (O)-4-[[4-[(2,6-dichlorophenyl)methyl]-6-[(2,3-dihydroxypropyl)amino]-1,3,5-triazin-2-yl]amino]benzonitrile] | – | 883 | 59700 | 68 | –
N#Cc1ccc(Nc2nc(Cc3c(Cl)cccc3Cl)nc(NCCOCCO)n2)cc1 [Compound 27] | – | 837 | 46800 | 56 | –
CN(C)CCNc1nc(Cc2c(Cl)cccc2Cl)nc(Nc2ccc(C#N)cc2)n1 [Compound 29] | – | 1741 | 8700 | 5 | –
N#Cc1ccc(Nc2nc(Cc3c(Cl)cccc3Cl)nc(NCCCN)n2)cc1 [Compound 30] | – | 416 | 16500 | 40 | –
CN(C)CCCNc1nc(Cc2c(Cl)cccc2Cl)nc(Nc2ccc(C#N)cc2)n1 [Compound 31] | – | 506 | 9600 | 19 | –
N#Cc1ccc(Nc2nc(Cc3c(Cl)cccc3Cl)nc(NC3CCOC3=O)n2)cc1 (centres unmarked) [Compound 32] | – | 42 | 83400 | 2000 | –
N#Cc1ccc(Nc2nc(Cc3c(Cl)cccc3Cl)nc(NO)n2)cc1 [Compound 33, 4-[[4-[(2,6-dichlorophenyl)methyl]-6-(hydroxyamino)-1,3,5-triazin-2-yl]amino]benzonitrile] | 2 | 6272 | – | – | –
N#Cc1ccc(Nc2nc(Cc3c(Cl)cccc3Cl)nc(NCCc3cccs3)n2)cc1 [Compound 35] | – | 75 | 53000 | 700 | –
CONc1nc(Cc2c(Cl)cccc2Cl)nc(Nc2ccc(C#N)cc2)n1 [Compound 36] | – | 8097 | 40900 | 5 | –
CCOC(=O)Nc1nc(Cc2c(Cl)cccc2Cl)nc(Nc2ccc(C#N)cc2)n1 [Compound 37] | – | 7948 | 85000 | 11 | –
CN(C)c1nc(Cc2c(Cl)cccc2Cl)nc(N(c2ccc(C#N)cc2)c2ccc(C#N)cc2)n1 [Compound 38, 4,4′-[[4-[(2,6-dichlorophenyl)methyl]-6-(dimethylamino)-1,3,5-triazin-2-yl]imino]bisbenzonitrile] | > 100000 | – | – | – | –
CC(=O)Nc1nc(Cc2c(Cl)cccc2Cl)nc(N(C(C)=O)c2ccc(C#N)cc2)n1 [Compound 40] | – | >41666 | > 100000 | 2 | –
CCOC(=O)N(C(=O)OCC)c1nc(Cc2c(Cl)cccc2Cl)nc(N(C(=O)OCC)c2ccc(C#N)cc2)n1 [Compound 41] | – | 3125 | 40200 | 13 | –
N#Cc1ccc(Nc2nc(N)nc(Cc3c(Cl)ccc(Cl)c3Cl)n2)cc1 [Compound 44] | – | >35087 | > 100000 | 3 | –
N#Cc1ccc(Nc2nc(N)nc(Cc3cccc(OC(F)(F)F)c3)n2)cc1 [Compound 45] | – | >233 | > 100000 | 430 | –
COc1ccc(OC)c(Cc2nc(N)nc(Nc3ccc(C#N)cc3)n2)c1 [Compound 46] | – | >2506 | > 100000 | 40 | –
Cc1ccc(C)c(Cc2nc(N)nc(Nc3ccc(C#N)cc3)n2)c1 [Compound 49] | – | >220 | > 20000 | 91 | –
COc1cccc(Cc2nc(N)nc(Nc3ccc(C#N)cc3)n2)c1OC [Compound 50] | – | >252 | > 20000 | 79 | –
N#Cc1ccc(Nc2nc(N)nc(Cc3cc(F)ccc3F)n2)cc1 [Compound 51] | – | >640 | > 20000 | 31 | –
N#Cc1ccc(Nc2nc(N)nc(Cc3c(F)ccc(F)c3F)n2)cc1 [Compound 52] | – | >220 | – | 3 | –
CN(C)C=Nc1nc(Cc2c(Cl)cccc2Cl)nc(Nc2ccc(C#N)cc2)n1 [Compound 62, 4-[[4-[(2,6-dichlorophenyl)methyl]-6-[[(dimethylamino)methylene]amino]-1,3,5-triazin-2-yl]amino]benzonitrile] | 2 | >41666 | – | – | –
